Reference: patent US20130047297A1, “POLYNUCLEOTIDE MOLECULES FOR GENE REGULATION IN PLANTS” (priority 2010, published 2013)
d = 2'-deoxy (DNA); r = 2'-OH (RNA)

Experiments:
[1] = system: Palmer amaranth; assay: Combinations of EPSPS, TIF and ddATPase polynucleotides then glyphosate (Example 26, Tables 12 and 13); type: in vivo
Description: Solutions of the polynucleotides were prepared and applied to the leaves of Palmer amaranth using the protocols described in Table 12.

[2] = system: Glyphosate-sensitive Palmer amaranth (Amaranthus palmeri) plants; assay: HPPD, PPO, TIF anti-sense ssDNA with mesotrione, fomesafen, atrazine, plant height (Example 28, Tables 18 and 19); type: in vivo; settings: for Plant height (mm): four days after herbicide treatment
Description: The herbicidal activity of ssDNA polynucleotides that target the enzymes […] and protoporphyrinogen oxidase (PPO), and a transcription initiation factor (TIF), and their effect on the herbicide activity when used in combination with the herbicides mesotrione, fomesafen, and atrazine in Palmer amaranth was investigated.
Glyphosate-sensitive Palmer amaranth (Amaranthus palmeri) plants were grown in 4-inch square pots with Sun Gro® Redi-Earth seedling mix containing 3.5 kg/cubic meter Osmocote® 14-14-14 fertilizer in a greenhouse with 14 h photoperiod and a daytime temperature of 30 degrees Celsius and night temperature of 20 degrees Celsius. The plants were sub-irrigated as necessary.
Plants at 10 to 15 cm height were pre-treated manually with 40 microliters (4 fully expanded mature leaves were treated with 10 microliters of solution per leaf on each plant) of a buffer-surfactant solution (as a control; 0.5% Silwet L-77 and 2% ammonium sulfate), or a buffer-surfactant-ssDNA polynucleotide mixture of the anti-sense oligonucleotides targetting HPPD, PPO, or TIF. Some plants were left untreated and were used as controls. […] Crop oil concentrate (COC) at 1% was added to all herbicide treatments. A low rate of each herbicide ([…], equivalent to ⅛ of the recommended field rate; […], equivalent to 1/22 of the recommended field rate; […], equivalent to ⅛ of the recommended field rate,) was used to be able to detect any improvement of herbicide activity by the oligonucleotide mixture.
Plant height was determined at four days after herbicide treatment. Data were collected from one experiment with four replications per treatment.

[3] = pre-treatment: Buffer (0.5% Silwet L-77 and 2% ammonium sulfate), herbicide 24 h later (mesotrione 13, fomesafen 23 grams per hectare, 1% COC)
[4] = pre-treatment: Untreated, herbicide only (mesotrione 13, fomesafen 23, atrazine 170 grams per hectare of active ingredient, 1% COC)
[5] = protocol 3, 29 g/acre, copy number 16, 13 DAT

“IDT [5]: Palmer/EPSPS dsRNA (21-mer) with blunt ends, SEQ ID NO. 91, 92 (chain 1 AACAUGAACAAAAUGCCAGAU; chain 2 AUCUGGCAUUUUGUUCAUGUU; RNA, backbone not given here)” was tested, and the “Results: % stunted” value ([1]; protocol 1, 0.29 g/acre, copy number 33, 54, 55, 18 DAT) was 71%, the “Results: % stunted” value ([1]; protocol 1, 0.29 g/acre, copy number 34, 36, 54, 22 DAT) was 14.1% and the “Results: % killed” value ([1]; protocol 1, 2.9 g/acre each, copy number 34, 36, 54, 22 DAT) was 100% kill. For the same molecule, the “Results: % killed” value ([1]; protocol 1, 2.9 g/acre, copy number 33, 54, 55, 18 DAT) was 100% killed.

In the case of `CS(=O)(=O)NC(=O)c1cc(Oc2ccc(C(F)(F)F)cc2Cl)ccc1[N+](=O)[O-]` [fomesafen], the “Plant height (mm)” value [2, 3] is reported as 139 mm and the “Plant height (mm)” value [2, 4] is reported as 158 mm.

`CS(=O)(=O)c1ccc(C(=O)C2C(=O)CCCC2=O)c([N+](=O)[O-])c1` [mesotrione] was tested, and the “Plant height (mm)” value [2, 3] was 179 mm and the “Plant height (mm)” value [2, 4] was 180 mm.

“IDT [4]: Palmer/EPSPS dsRNA, SEQ ID NO. 89, 90 (chain 1 UGCAAGGUCACCUGGACAGAGAAA; chain 2 UAUUCUCUGUCCAGGUGACCUUGCAAC; listed as RNA, chemistry not fully specified)” was tested, and the “Results: % stunted” value [1, 5] was 51% stunted.

With “IDT [1]: Palmer/EPSPS dsRNA, SEQ ID NO. 83, 84 (chain 1 CUACCAUCAACAAUGGUGUCCAUAC; chain 2 GUAUGGACACCAUUGUUGAUGGUAGUA; chain 1: sugars from the 5' end r23 d2, backbone not given here; chain 2: RNA, backbone not given here)” the “Results: % stunted” value [1, 5] was 51% stunted.

For `CCNc1nc(Cl)nc(NC(C)C)n1` [atrazine], the “Plant height (mm)” value [2, 4] was 146 mm.

For “IDT [2]: Palmer/EPSPS dsRNA, SEQ ID NO. 85, 86 (chain 1 AGUUGGUGGGCAAUCAUCAAUUG; chain 2 AACAAUUGAUGAUUGCCCACCAACUCU; chain 1: RNA, 3' dTdT, backbone not given here; chain 2: RNA, backbone not given here)”, the “Results: % control” value [1, 5] was 0% control.

B1: HPPD anti-sense ssDNA oligonucleotides: 8 HPPD anti-sense ssDNA oligonucleotides (SEQ ID NOS:141-148) (nucleic acid)
antisense 1: TCCGTAGCTTACATACCGAAG
antisense 2: TCCAAGTGAATAGGAGAAACA
antisense 3: AGCAGCTTCTGCGTCTTCTAC
antisense 4: ACAGCACGCACGCCAAGACCG
antisense 5: CGATGTAAGGAATTTGGTAAA
antisense 6: CGAGGGGATTGCAGCAGAAGA
antisense 7: GTAGGAGAATACGGTGAAGTA
antisense 8: GACCCCAAGAAAATCGTCTGC
modifications: DNA, backbone not given here
In the case of B1, the “growth reduction relative to the buffer-surfactant control” value ([2]; ssDNA pre-treatment without herbicide) is reported as 32% and the “Palmer amaranth plant height” value ([2]; ssDNA pre-treatment without herbicide, 40 microliters per plant in 0.5% Silwet L-77 and 2% ammonium sulfate, buffer-surfactant control 185 mm) is reported as 125 mm.
